Reference: US10729710B2, “Catecholamine prodrugs for use in the treatment of Parkinson's disease” (H. Lundbeck A/S, priority 2017, dated 2020)
Structures can show the parent of a compound that is named as a salt. One block for each compound: values may come before it.

Key:
[1] = PK experiments in rats: plasma compound (I) after oral dosing of prodrugs; assay type: in vivo, Han Wistar rats; details: Wistar rats, FIG. 2, doses equal to 287 μg/kg of compound (I)
Experimental: (§1) Plasma was placed on water-ice following collection. Final storage at approximately −70° C.
Mobile phase B: Acetonitrile. […] Flow rate 0.5 mL/min.
The rats had unrestricted access to the diet.
Mobile phase B: Acetonitrile+0.2% formic acid. […] Flow rate 0.3 mL/min.
Han Wistar rats were supplied by Envigo, UK. […] The rats received a standard laboratory diet Teklad 2014C. The rats had unrestricted access to the diet.

hepatocytes from rat = test: Conversion to compound (I) in rat hepatocytes; assay type: in vitro ADME; details: 1 μg/mL, 37° C., 0.25-60 minutes, FIG. 7a
Experimental: (§2) The cell concentration at incubation was 1×10^6 viable cells/mL. The incubations were performed in glass tubes at 37° C. with a total incubation volume of 3.5 mL and with duplicate incubations for each test item. The 3.5 mL of hepatocyte suspension was equilibrated for 10 minutes in a water bath set to 37° C. where after the incubations were initiated by adding 3.5 μL of a stock solution of the test item in DMSO (Dimethyl sulfoxide) and gently inverting the tubes. The final solvent concentration in the incubations was 0.1% DMSO. Samples of 600 μL were withdrawn from the incubations at the pre-determined time points of 0.25, 5, 15, 30 and 60 minutes after ensuring homogeneity of hepatocyte suspensions. The withdrawn volume was added to 1 mL Nunc cryo tubes on wet ice containing 60 μL of ice cold ascorbic acid (100 mg/mL) and 30 μL of ice cold 100 mM saccharic acid 1.4-lactone in 0.5 M citric acid. The tubes were mixed and 35 μL of a solution of ice cold 20% formic acid was added. The tubes were mixed thoroughly and stored at −80° C. awaiting analysis. Analysis method and Instrumentation used for analysis of (I) from dosing (Id-ia), (Id-ib), (Id-iia) and (Id-iib), were the one described in Examples 4 and 5 below in the section “Instrumentation used for analysis of compound (I) from dosing of compounds (Ic), (Id-ia), (Id-ib), (Id-iia), (Id-iib), (Id-iab) and (Id-iiab).”
(§3) Analysis method and Instrumentation used for analysis of (I) from dosing (Id-iab) and (Id-iiab) consisted of mixing equal aliquots of the samples and precipitation solution (acetonitrile (MeCN) with 10% methanol (MeOH) and 1% formic acid), followed by centrifugation at 4° C. at 16000 g for 10 minutes. Supernatants were collected and analysed by LC-MS/MS. Mass spectrometer: Waters Acquity—Waters Xevo TQ-MS. Analytical column: Acquity UPLC HSS T3, 100×2.1 mm, 1.8 μm. Mobile phase A: 0.2% formic acid in water. Mobile phase B: 0.2% formic acid in acetonitrile. Gradient run from 95/5% to 60/40 in 5 min. Flow rate 0.3 mL/min. MRM monitoring of (I) in the study samples and in the analytical standards.

hepatocytes from human = test: Conversion to compound (I) in human hepatocytes; assay type: in vitro ADME; details: 1 μg/mL, 37° C., 0.25-60 minutes, FIG. 7b
Experimental: as §2, §3

[2] = Stability of the disulfate in acidic conditions (LCMS); assay type: physicochemical; details: LCMS with acidic eluent
[3] = male, Han Wistar, rat, in vivo, po, 4 h
Experimental: as §1
Mass spectrometer (UPCLC-MS/MS) Waters Acquity I-Class-Waters Xevo TQ-S. Analytical column Acquity HSS T3 C18 50×2.1 mm, 1.8 μm. Mobile phase A: 10 mM NH4-Formate 0.2% formic acid:Acetonitril (95:5). Mobile phase B: 10 mM NH4-Formate 0.2% formic acid:Acetonitril (5:95). Gradient run from 95/5% to 5/95% in 2.40 min. Flow rate 0.3 mL/min. MRM detection of test items and the added analytical standards
The rats had unrestricted access to the diet. Male Han Wistar rats were administered a single dose of apomorphine either subcutaneously or orally by gavage, or administered a single dose of apormorphine conjugates orally by gavage.

[4] = in man after oral dosing; cited from earlier work
human 5-HT2B receptor [5] = biological target: T1, human 5-HT2B receptor (Homo sapiens (Human), UniProt P41595); test: 5-HT2B radioligand binding assay ([125I](±)DOI); details: 0.2 nM [125I](±)DOI, read-out: 5-HT2B binding affinity (% inhibition of control, specific binding at concentration indicated)
Experimental: Membrane homogenates prepared from CHO cells expressing the human 5HT2B receptor were incubated for 60 min at room temperature with 0.2 nM [125I](±)DOI (1-(4-iodo-2, 5-dimethoxyphenyl)propan-2-amine) in the absence or presence of the test compound in a buffer containing 50 mM Tris-HCl (pH 7.4), 5 mM MgCl2, 10 μM pargyline and 0.1% ascorbic acid. Nonspecific binding is determined in the presence of 1 μM (±)DOI. Following incubation, the samples were filtered rapidly under vacuum through glass fiber filters (GF/B, Packard) presoaked with 0.3% polyethyleneimine (PEI) and rinsed several times with ice-cold 50 mM Tris-HCl using a 96-sample cell harvester (Unifilter, Packard). The filters were dried and counted for radioactivity in a scintillation counter (Topcount, Packard) using a scintillation cocktail (Microscint 0, Packard). The results are expressed as a percent inhibition of the control radioligand specific binding. The standard reference compound was (±)DOI, which was tested in each experiment at several concentrations to obtain a competition curve from which its IC50 is calculated.

human D1 receptor = human D1 receptor (Homo sapiens (Human), UniProt P21728); test: Dopamine D1 receptor agonism, HTRF cAMP assay; assay type: cell-based; details: normalized to 30 uM dopamine = 100%
Experimental: Dopamine D1 receptor agonism was measured using a HTRF cAMP from CisBio using the protocol developed by HD Biosciences (China). Briefly, the assay is a homogeneous time resolved-fluorescence resonance energy transfer (HTRF) assay that measures production of cAMP by cells in a competitive immunoassay between native cAMP produced by cells and cAMP-labeled with XL-665. A cryptate-labeled anti-cAMP antibody visualizes the tracer. The assay was performed in accordance with instructions from manufacturer.
Test compounds were added to wells of microplates (384 format). HEK-293 cells expressing the human D1 receptor were plated at 1000 cells/well and incubated 30 min at room temperature. cAMP-d2 tracer was added to wells and followed by addition of Anti-cAMP antibody-cryptate preparation and incubated for 1 h at room temperature in dark. HTRF cAMP was measured by excitation of the donor with 337 nm laser (the “TRF light unit”) and subsequent (delay time 100 microseconds) measurement of cryptate and d2 emission at 615 nm and 665 nm over a time window of 200 microseconds with a 2000 microseconds time window between repeats/100 flashes). HRTF measurements were performed on an Envision microplate reader (PerkinElmer). The HTRF signal was calculated as the emission-ratio at 665 nm over 615 nm. The HTRF ratio readout for test compounds was normalized to 0% and 100% stimulation using control wells with DMSO-solvent or 30 uM dopamine. Test compound potency (EC50) was estimated by nonlinear regression using the sigmoidal dose-response (variable slope) using Xlfit 4 (IDBS, Guildford, Surrey, UK, model 205). y=(A+((B−A)/(1+((C/x)^D)))) where y is the normalized HTRF ratio measurement for a given concentration of test compound, x is the concentration of test compound, A is the estimated efficacy at infinite compound dilution, and B is the maximal efficacy. C is the EC50 value and D is the Hill slope coefficient. EC50 estimates were obtained from an independent experiment and the logarithmic average was calculated. Dopamine D2 Receptor Agonism

human D2 receptor = human D2 receptor (Homo sapiens (Human), UniProt P14416); test: Dopamine D2 receptor agonism, calcium mobilization assay; assay type: cell-based; details: normalized to 1 μM dopamine = 100%
Experimental: Dopamine D2 receptor agonism was measured using a calcium mobilization assay protocol developed by HD Biosciences (China). Briefly, HEK293/G15 cells expressing human D2 receptor were plated at a density of 15000 cells/well in clear-bottomed, Matrigel-coated 384-well plates and grown for 24 hrs at 37° C. in the presence of 5% CO2. The cells were incubated with calcium-sensitive fluorescent dye, Fluo8, for 60-90 minutes at 37° C. in the dark. Test compounds were prepared at 3-fold concentrated solution in 1×HBSS buffer with Ca^2+ and Mg^2+. Calcium Flux signal was immediately recorded after compounds were added from compound plate to cell plate at FLIPR (Molecular Devices). The fluorescence data were normalized to yield responses for no stimulation (buffer) and full stimulation (1 μM of dopamine) of 0% and 100% stimulation, respectively. Test compound potency (EC50) was estimated by nonlinear regression using the sigmoidal dose-response (variable slope) using Xlfit 4 (IDBS, Guildford, Surrey, UK, model 205). y=(A+((B−A)/(1+((C/x)^D)))) where y is the normalized ratio measurement for a given concentration of test compound, x is the concentration of test compound, A is the estimated efficacy at infinite compound dilution, and B is the maximal efficacy. C is the EC50 value and D is the Hill slope coefficient. EC50 estimates were obtained from independent experiment and the logarithmic average was calculated.

human 5-HT2B receptor [6] = biological target: T1, human 5-HT2B receptor; test: 5-HT2B agonist activity assay (IP1 production, HTRF); assay type: cell-based; details: read-out: 5-HT2B Emax
Experimental: Evaluation of the agonist activity of compounds (I), (Ia) and (Ib) at the human 5-HT2B receptor was performed by Eurofins/Cerep (France) measuring the compound effects on inositol monophosphate (IP1) production using the HTRF detection method. Briefly, the human 5-HT2B receptor was expressed in transfected CHO cells. The cells were suspended in a buffer containing 10 mM Hepes/NaOH (pH 7.4), 4.2 mM KCl, 146 mM NaCl, 1 mM CaCl2, 0.5 mM MgCl2, 5.5 mM glucose and 50 mM LiCl, then distributed in microplates at a density of 4100 cells/well and incubated for 30 min at 37° C. in the presence of buffer (basal control), test compound or reference agonist. For stimulated control measurement, separate assay wells contained 1 μM 5-HT. Following incubation, the cells were lysed and the fluorescence acceptor (fluorophen D2-labeled IP1) and fluorescence donor (anti-IP1 antibody labeled with europium cryptate) were added. After 60 min at room temperature, the fluorescence transfer was measured at lambda(Ex) 337 nm and lambda(Em) 620 and 665 nm using a microplate reader (Rubystar, BMG). The IP1 concentration was determined by dividing the signal measured at 665 nm by that measured at 620 nm (ratio). The results were expressed as a percent of the control response to 1 μM 5-HT. The standard reference agonist was 5-HT, which was tested in each experiment at several concentrations to generate a concentration-response curve from which its EC50 value is calculated as described above for dopamine functional assays.

[7] = Liu et al., Bioorganic Med. Chem. (2008); cited from earlier work

T1 sequence (P41595 whole entry): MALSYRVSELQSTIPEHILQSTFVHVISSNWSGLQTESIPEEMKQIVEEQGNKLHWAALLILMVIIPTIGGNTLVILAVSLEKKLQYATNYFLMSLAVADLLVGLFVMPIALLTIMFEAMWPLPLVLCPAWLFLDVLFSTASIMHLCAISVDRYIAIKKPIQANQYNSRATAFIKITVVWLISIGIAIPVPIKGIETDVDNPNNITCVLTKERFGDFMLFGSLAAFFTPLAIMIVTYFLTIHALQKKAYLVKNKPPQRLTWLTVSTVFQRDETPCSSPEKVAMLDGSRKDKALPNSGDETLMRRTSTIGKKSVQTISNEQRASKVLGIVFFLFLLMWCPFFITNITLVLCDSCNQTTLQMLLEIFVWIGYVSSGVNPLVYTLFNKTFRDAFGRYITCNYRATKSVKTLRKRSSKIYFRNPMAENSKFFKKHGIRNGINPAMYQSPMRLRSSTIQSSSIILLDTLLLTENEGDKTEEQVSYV
Sequence of human D2 receptor (P14416 whole entry): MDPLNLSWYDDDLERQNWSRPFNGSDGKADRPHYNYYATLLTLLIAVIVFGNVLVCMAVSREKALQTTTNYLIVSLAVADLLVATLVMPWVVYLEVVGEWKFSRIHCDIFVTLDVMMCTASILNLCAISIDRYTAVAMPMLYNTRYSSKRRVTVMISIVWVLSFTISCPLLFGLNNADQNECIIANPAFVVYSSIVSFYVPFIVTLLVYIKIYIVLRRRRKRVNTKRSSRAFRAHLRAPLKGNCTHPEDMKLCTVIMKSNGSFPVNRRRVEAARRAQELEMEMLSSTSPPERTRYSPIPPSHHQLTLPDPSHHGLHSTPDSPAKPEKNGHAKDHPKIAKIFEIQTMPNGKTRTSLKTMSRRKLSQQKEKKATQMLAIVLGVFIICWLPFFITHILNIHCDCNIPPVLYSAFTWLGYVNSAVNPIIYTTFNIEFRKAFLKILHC
Sequence of human D1 receptor (P21728 whole entry): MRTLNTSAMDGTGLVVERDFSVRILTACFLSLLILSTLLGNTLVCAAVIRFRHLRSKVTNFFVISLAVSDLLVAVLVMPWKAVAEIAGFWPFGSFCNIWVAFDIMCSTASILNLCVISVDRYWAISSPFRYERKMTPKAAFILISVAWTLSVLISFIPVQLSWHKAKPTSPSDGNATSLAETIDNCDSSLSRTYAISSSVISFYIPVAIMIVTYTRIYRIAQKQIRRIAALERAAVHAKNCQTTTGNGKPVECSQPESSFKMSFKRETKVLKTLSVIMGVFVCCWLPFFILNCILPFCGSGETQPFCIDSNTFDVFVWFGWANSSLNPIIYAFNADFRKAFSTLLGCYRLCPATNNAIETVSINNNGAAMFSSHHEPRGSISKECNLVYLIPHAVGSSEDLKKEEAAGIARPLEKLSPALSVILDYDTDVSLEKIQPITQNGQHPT

conversion to compound (I) in rat hepatocytes (hepatocytes from rat): could not be detected
conversion to compound (I) in human hepatocytes (hepatocytes from human): could not be detected
stability in acidic conditions (in words) [2]: instability
SMILES: CCCN1CCC[C@@H]2Cc3c(ccc(OS(=O)(=O)O)c3OS(=O)(=O)O)C[C@H]21 [(Id-iiab), (4aR,10aR)-1-propyl-1,2,3,4,4a,5,10,10a-octahydrobenzo[g]quinoline-6,7-diyl bis(hydrogen sulfate)]
plasma profile of compound (I) after oral dosing (in words) [1]: slower absorption rate avoiding rapid peak concentrations accompanied by a sustained exposure of compound (I) in plasma

apomorphine in plasma at one time point [3]: 916 pg/mL
SMILES: CN1CCc2cccc3c2[C@H]1Cc1ccc(O[C@@H]2O[C@H](C(=O)O)[C@@H](O)[C@H](O)[C@H]2O)c(O)c1-3 [(2S,3S,4S,5R,6S)-6-[[(6aR)-11-hydroxy-6-methyl-5,6,6a,7-tetrahydro-4H-dibenzo[de,g]quinolin-10-yl]oxy]-3,4,5-trihydroxy-tetrahydropyran-2-carboxylic acid]

SMILES: CCCc1cc2c(s1)CN[C@@H]1CCc3cc(OC(C)=O)c(OC(C)=O)cc3[C@@H]21 [Adrogolide]
oral bioavailability [4]: ~4%

SMILES: CCCN1CCC[C@@H]2Cc3c(ccc(O[C@@H]4O[C@H](C(=O)O)[C@@H](O)[C@H](O)[C@H]4O)c3O[C@@H]3O[C@H](C(=O)O)[C@@H](O)[C@H](O)[C@H]3O)C[C@H]21 [(Id-iab), (2S,2′S,3S,3′S,4S,4′S,5R,5′R,6S,6′S)-6,6′-(((4aR,10aR)-1-propyl-1,2,3,4,4a,5,10,10a-octahydrobenzo[g]quinoline-6,7-diyl)bis(oxy))bis(3,4,5-trihydroxytetrahydro-2H-pyran-2-carboxylic acid)]
inhibition at 10 µM (human 5-HT2B receptor [5]): 17%
plasma profile of compound (I) after oral dosing (in words) [1]: slower absorption rate avoiding rapid peak concentrations accompanied by a sustained exposure of compound (I) in plasma
conversion to compound (I) in rat hepatocytes (hepatocytes from rat): time dependent conversion to compound (I)
conversion to compound (I) in human hepatocytes (hepatocytes from human): time dependent conversion to compound (I)

SMILES: CCCN1CCC[C@@H]2Cc3c(ccc(O)c3O)C[C@H]21 [(I), (4aR,10aR)-1-n-Propyl-1,2,3,4,4a,5,10,10a-octahydro-benzo[g]quinoline-6,7-diol, reference compound]
Emax (human D1 receptor): 99%
Emax (human D2 receptor): 91%
Emax (human 5-HT2B receptor [6]): 50%
oral bioavailability (in words) [7]: low oral bioavailability
